From article PMC9564337, “Development of a Neurotensin-Derived ^68Ga-Labeled PET Ligand with High In Vivo Stability for Imaging of NTS1 Receptor-Expressing Tumors” (Cancers, 2022) come the findings set out here.

Where two headings read alike, the source gives them in different places.

A short description of one data set: in vitro. Type of data set: in vitro ADME. Particulars: human; for remaining at 1 h, 100 µM: pH 7.4, % Intact Peptide in Plasma after 1 h; for remaining at 6 h, 100 µM: pH 7.4, % Intact Peptide in Plasma after 6 h; for remaining at 24 h, 100 µM: pH 7.4, % Intact Peptide in Plasma after 24 h; for remaining at 48 h, 100 µM: pH 7.4, % Intact Peptide in Plasma after 48 h. The protocol:
The concentration of the peptides in plasma/PBS (1:2 v/v) was 80 and 4 μM (recovery determination) or 100 μM (stability tests). Data analysis was based on UV detection at 220 nm (8, 9, 11, 12, 14-18, 21-23, 38-49, and 54-57) or fluorescence detection at 275/305 nm (19 and 20). Reference samples, representing 100% recovery, were prepared in duplicate (8, 9, 11, 14-16, and 19-21) or quadruplicate (12, 17, 18, 22, 23, 38-49, and 54-57). Recovery ratios were obtained by dividing the recovery of the peptide by the recovery of IS for each individual sample (n = 3-5). The obtained recoveries and the recovery ratios are summarized in Table S2, Supplementary Materials. […] Instead, the recovery ratios determined for the previously reported, structurally closely related peptide […] [40] were used for calculating the amount of remaining intact peptide in plasma.

The target in the next data set is T1, hNTS1R (Homo sapiens, UniProt P30989).
T1 construct: intact HT-29 colon carcinoma cells expressing the hNTS1R; host or cells: HT-29 human colon carcinoma cells
Nature of the data set: radioligand competition binding with [3H]UR-MK300 at intact HT-29 cells. The note with it: for pKi ± SD NTS1R / Ki: [3H]UR-MK300 c = 1 nM, HT-29 cells, 23 °C. The source says: Specific binding data (obtained by subtracting unspecific binding from total binding) were normalized (100% = specifically bound radioligand in the absence of competitor) and plotted over log(concentration of competitor) followed by a four-parameter logistic fit (SigmaPlot 12.5, Systat Software, San José, CA, USA) (note: in the case of 40, the lower curve plateau of the sigmoidal fit was constrained to >0). […] The Ki values from individual experiments were transformed to pKi values, followed by the calculation of mean pKi values ± SD.

[1] abbreviates: read-out: Ki [nM] NTS1R (converted).
[2] abbreviates: read-out: pKi ± SD NTS1R (converted).

T1 sequence (P30989 whole entry): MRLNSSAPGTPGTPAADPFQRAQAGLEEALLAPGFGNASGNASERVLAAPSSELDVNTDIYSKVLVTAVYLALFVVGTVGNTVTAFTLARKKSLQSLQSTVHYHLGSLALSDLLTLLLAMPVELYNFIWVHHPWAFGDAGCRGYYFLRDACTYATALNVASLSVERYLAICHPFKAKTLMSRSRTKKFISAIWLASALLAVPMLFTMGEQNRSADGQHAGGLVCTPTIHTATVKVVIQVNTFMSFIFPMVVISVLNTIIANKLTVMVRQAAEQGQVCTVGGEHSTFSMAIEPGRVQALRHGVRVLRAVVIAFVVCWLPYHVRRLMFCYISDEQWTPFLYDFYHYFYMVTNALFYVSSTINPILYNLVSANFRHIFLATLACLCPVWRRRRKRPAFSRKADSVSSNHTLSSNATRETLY

In the case of `CC[C@H](C)[C@H](NC(=O)[C@H](Cc1ccc(O)cc1)NC(=O)[C@@H]1CCCN1C(=O)[C@H](CCCNC(=N)NC(=O)NCCCCNC(=O)CN1CCN(CC(=O)O)CCN(CC(=O)O)CCN(CC(=O)O)CC1)NC(=O)[C@H](CCCNC(=N)N)NC)C(=O)N[C@@H](CC(C)C)C(=O)O` [Compound 15], in the data set “in vitro” (100 µM, pH 7.4), the “% Intact Peptide in Plasma after 1 h” value amounted to 78 ± 1% and the “% Intact Peptide in Plasma after 6 h” value turned out to be 8.3 ± 0.4%.
With `CN[C@@H](CCCNC(N)=NC(=O)NCCOCCOCCNC(=O)[C@@H](Cc1ccc(-c2ccc(F)cc2)cc1)NC(=O)CCCCCNC(=O)CN1CCN(CC(=O)O)CCN(CC(=O)O)CCN(CC(=O)O)CC1)C(=O)N[C@@H](CCCNC(=N)N)C(=O)N1CCC[C@H]1C(=O)N[C@@H](Cc1ccc(O)cc1)C(=O)N[C@H](C(=O)N[C@@H](CC(C)C)C(=O)O)C(C)(C)C` [Compound 33], the “increase in NTS1R affinity upon insertion of Ga3+” value at hNTS1R (versus the precursor with empty DOTA chelator (32 or 54)) was 4.8 fold.
`CN[C@@H](CCCNC(N)=NC(=O)NCCCCNC(=O)CN1CCN(CC(=O)O)CCN(CC(=O)O)CCN(CC(=O)O)CC1)C(=O)N[C@@H](CCCNC(=N)N)C(=O)N1CCC[C@H]1C(=O)N[C@H](C(=O)N[C@H](C(=O)N[C@@H](CC(C)C)C(=O)O)C(C)(C)C)C(C)(C)c1ccc(O)cc1` [Compound 57]: the “lower NTS1R affinity compared to 56” value at hNTS1R (57 versus 56) worked out at 18 fold. Further, the “pKi ± SD NTS1R” value on hNTS1R worked out at 7.67 ± 0.04. Further, the Ki at hNTS1R (setting [1]) was 21 nM. In “in vitro” (plasma), the share remaining at 1 h, 100 µM was greater than 99%; the fraction remaining at 6 h, 100 µM is greater than 99%; the fraction remaining at 24 h, 100 µM is 68 ± 1%; the amount remaining at 48 h, 100 µM is less than 1%.
In “in vitro” (plasma), `CC[C@H](C)[C@H](NC(=O)[C@H](Cc1ccc(O)cc1)NC(=O)[C@@H]1CCCN1C(=O)[C@H](CCCNC(=N)N)NC(=O)[C@H](CCCNC(=N)N)NC)C(=O)N[C@@](C)(CC(C)C)C(=O)O` [Compound 47] came in with an amount remaining at 1 h, 100 µM of 89 ± 1%; an amount remaining at 6 h, 100 µM of 88 ± 1%; a fraction remaining at 24 h, 100 µM of 81 ± 1%; a share remaining at 48 h, 100 µM of 73 ± 1%.
With `CN[C@@H](CCCNC(N)=NC(=O)NCCOCCOCCNC(=O)CN1CCN(CC(=O)O)CCN(CC(=O)O)CCN(CC(=O)O)CC1)C(=O)N[C@@H](CCCNC(=N)N)C(=O)N1CCC[C@H]1C(=O)N[C@@H](Cc1ccc(O)cc1)C(=O)N[C@H](C(=O)N[C@@H](CC(C)C)C(=O)O)C(C)(C)C` [Compound 23], the “pKi ± SD NTS1R” value on hNTS1R worked out at 8.13 ± 0.11. Besides, the Ki on hNTS1R (setting [1]) is 7.5 nM. Moreover, the “% Intact Peptide in Plasma after 6 h” value in “in vitro” (100 µM, pH 7.4) was 98 ± 6%. Also, in “in vitro” (24 h, 100 µM, pH 7.4), the “% Intact Peptide in Plasma after 24 h” value turned out to be 46 ± 2%. Besides, in “in vitro” (48 h, 100 µM, pH 7.4), the “% Intact Peptide in Plasma after 48 h” value was 7.8 ± 0.6%. This molecule yielded a fraction remaining at 1 h, 100 µM in “in vitro” (plasma) greater than 99%.
For `CN[C@@H](CCCNC(=N)N)C(=O)N[C@@H](CCCNC(=N)N)C(=O)N1CCC[C@H]1C(=O)N[C@@H](Cc1ccc(O)cc1)C(=O)N[C@H](C(=O)N[C@@H](CC(C)C)C(=O)O)C1CCC1` [Compound 42], on hNTS1R (setting [1]), the Ki was 1.1 nM. Also, at hNTS1R (setting [2]), the Ki was 1.05 nM. In the data set “in vitro” (plasma), the amount remaining at 1 h, 100 µM stood at 91 ± 1%; the fraction remaining at 6 h, 100 µM came out at 79 ± 1%; the fraction remaining at 24 h, 100 µM was 32 ± 1%; the share remaining at 48 h, 100 µM was less than 1%.
Regarding `CC[C@H](C)[C@H](NC(=O)[C@@H](NC(=O)[C@@H]1CCCN1C(=O)[C@H](CCCNC(=N)N)NC(=O)[C@H](CCCNC(N)=NC(=O)NCCCCNC(=O)CN1CCN(CC(=O)O)CCN(CC(=O)O)CCN(CC(=O)O)CC1)NC)C(C)(C)c1ccc(O)cc1)C(=O)N[C@@H](CC(C)C)C(=O)O` [Compound 56], in “in vitro” (plasma), the half-life at 100 µM was greater than 24 h; the fraction remaining at 1 h, 100 µM is greater than 99%; the share remaining at 6 h, 100 µM was greater than 99%; the share remaining at 24 h, 100 µM was found to be 77 ± 1%. In addition, the fraction remaining at 48 h, 100 µM in “in vitro” (plasma) is less than 1%.
With `CN[C@@H](CCCNC(=N)NC(=O)NCCOCCOCCN)C(=O)N[C@@H](CCCNC(=N)N)C(=O)N1CCC[C@H]1C(=O)N[C@@H](Cc1ccc(O)cc1)C(=O)N[C@H](C(=O)N[C@@H](CC(C)C)C(=O)O)C(C)(C)C` [Compound 12], at hNTS1R (setting [1]), the Ki was 2.7 nM. On hNTS1R (setting [2]), the Ki was 2.45 nM. Further, in “in vitro” (plasma), the share remaining at 1 h, 100 µM stood at 97 ± 3%; the amount remaining at 6 h, 100 µM was determined as 97 ± 3%; the amount remaining at 24 h, 100 µM was 94 ± 3%; the fraction remaining at 48 h, 100 µM was 91 ± 3%.
In “in vitro” (plasma), `CC[C@H](C)[C@H](NC(=O)[C@@H](NC(=O)[C@@H]1CCCN1C(=O)[C@H](CCCNC(=N)N)NC(=O)[C@H](CCCNC(=N)N)NC)C(C)(C)c1ccc(O)cc1)C(=O)N[C@@H](CC(C)C)C(=O)O` [Compound 48] showed an amount remaining at 1 h, 100 µM of 90 ± 4%; a share remaining at 6 h, 100 µM of 97 ± 6%; a fraction remaining at 24 h, 100 µM of 92 ± 1%; an amount remaining at 48 h, 100 µM of 92 ± 1%.
Turning to `CN[C@@H](CCCNC(N)=NC(=O)NCCCCNC(=O)[C@@H](Cc1ccc(-c2ccc(F)cc2)cc1)NC(=O)CN1CCN(CC(=O)O)CCN(CC(=O)O)CCN(CC(=O)O)CC1)C(=O)N[C@@H](CCCNC(=N)N)C(=O)N1CCC[C@H]1C(=O)N[C@@H](Cc1ccc(O)cc1)C(=O)N[C@H](C(=O)N[C@@H](CC(C)C)C(=O)O)C(C)(C)C` [Compound 34], the Ki on hNTS1R (setting [1]) is 10 nM; on hNTS1R (setting [2]), 10.2 nM.
As for `CN[C@@H](CCCNC(N)=NC(=O)NCCOCCOCCNC(=O)[C@H](N)Cc1ccc(-c2ccc(F)cc2)cc1)C(=O)N[C@@H](CCCNC(=N)N)C(=O)N1CCC[C@H]1C(=O)N[C@@H](Cc1ccc(O)cc1)C(=O)N[C@H](C(=O)N[C@@H](CC(C)C)C(=O)O)C(C)(C)C` [Compound 26], the Ki was 3.1 nM at hNTS1R (setting [1]) and 3.02 nM on hNTS1R (setting [2]).
For `CN[C@@H](CCCNC(N)=NC(=O)NCCCCNC(=O)[C@H](N)Cc1ccc(-c2ccc(F)cc2)cc1)C(=O)N[C@@H](CCCNC(=N)N)C(=O)N1CCC[C@H]1C(=O)N[C@@H](Cc1ccc(O)cc1)C(=O)N[C@H](C(=O)N[C@@H](CC(C)C)C(=O)O)C(C)(C)C` [Compound 25], in that order: 4.3 nM and 4.27 nM.
With `CC[C@H](C)[C@H](NC(=O)[C@H](NC(=O)[C@@H]1CCCN1C(=O)[C@H](CCCNC(=N)N)NC(=O)[C@H](CCCNC(=N)N)NC)C(C)(C)c1ccc(O)cc1)C(=O)N[C@@H](CC(C)C)C(=O)O` [Compound 49], in “in vitro” (plasma), the amount remaining at 1 h, 100 µM is 96 ± 2%; the amount remaining at 6 h, 100 µM turned out to be 96 ± 1%; the fraction remaining at 24 h, 100 µM was found to be 94 ± 5%; the share remaining at 48 h, 100 µM was determined as 95 ± 2%.
Consider `CC[C@H](C)[C@H](NC(=O)[C@H](Cc1ccc(O)cc1)NC(=O)[C@@H]1CCCN1C(=O)[C@H](CCCNC(=N)NC(=O)NCCCCNC(=O)CN1CCN(CC(=O)O)CCN(CC(=O)O)CCN(CC(=O)O)CC1)NC(=O)[C@H](CCCNC(=N)N)NC)C(=O)N[C@@H](CC(C)C)C(=O)O` [Compound 20], for which, in “in vitro” (100 µM, pH 7.4), the “% Intact Peptide in Plasma after 1 h” value is on record as greater than 99% and the “% Intact Peptide in Plasma after 6 h” value is 77 ± 2%. In “in vitro” (plasma), this molecule registered an amount remaining at 24 h, 100 µM of 15 ± 1% and a fraction remaining at 48 h, 100 µM of 4.6 ± 0.1%.
Take `CN[C@@H](CCCNC(N)=NC(=O)NCCOCCOCCNC(=O)[C@@H](Cc1ccc(-c2ccc(F)cc2)cc1)NC(=O)CN1CCN(CC(=O)O)CCN(CC(=O)O)CCN(CC(=O)O)CC1)C(=O)N[C@@H](CCCNC(=N)N)C(=O)N1CCC[C@H]1C(=O)N[C@@H](Cc1ccc(O)cc1)C(=O)N[C@H](C(=O)N[C@@H](CC(C)C)C(=O)O)C(C)(C)C` [Compound 35]: the Ki was 14 nM on hNTS1R (setting [1]) and 13.5 nM at hNTS1R (setting [2]).
For `CN[C@@H](CCCNC(=N)NC(=O)NCCCCNC(=O)CN1CCN(CC(=O)O)CCN(CC(=O)O)CCN(CC(=O)O)CC1)C(=O)N[C@@H](CCCNC(=N)N)C(=O)N1CCC[C@H]1C(=O)N[C@H](C(=O)N[C@H](C(=O)N[C@@H](CC(C)C)C(=O)O)C(C)(C)C)C(C)(C)c1ccc(O)cc1` [Compound 55], in that order: 85 nM and 79.4 nM.
For `CN[C@@H](CCCNC(N)=NC(=O)NCCOCCOCCNC(=O)[C@@H](Cc1ccc(-c2ccc(F)cc2)cc1)NC(=O)CCCCCNC(=O)CN1CCN(CC(=O)O)CCN(CC(=O)O)CCN(CC(=O)O)CC1)C(=O)N[C@@H](CCCNC(=N)N)C(=O)N1CCC[C@H]1C(=O)N[C@@H](Cc1ccc(O)cc1)C(=O)N[C@H](C(=O)N[C@@H](CC(C)C)C(=O)O)C(C)(C)C` [Compound 32], in that order: 12 nM and 10.7 nM.
`CC[C@H](C)[C@H](NC(=O)[C@H](Cc1ccc(O)cc1)NC(=O)[C@@H]1CCCN1C(=O)[C@H](CCCNC(=N)NC(=O)NCCCCN)NC(=O)[C@H](CCCNC(=N)N)NC)C(=O)N[C@@H](CC(C)C)C(=O)O` [Compound 9]: in “in vitro” (plasma), the fraction remaining at 1 h, 100 µM came out at 99 ± 2%; the amount remaining at 6 h, 100 µM amounted to 57 ± 2%; the fraction remaining at 24 h, 100 µM amounted to 3 ± 0.1%; the share remaining at 48 h, 100 µM turned out to be 1.4 ± 0.3%.
